One series concerns mice (C57BL/6J, male). The series can be described thus: Toxicity reducing effect: serum AST/ALT and death in mice. In kind it is in vivo. The note with it: 20 mg/kg intraperitoneally. As for the experimental part:
The test oligonucleotides (20 mg/kg) shown in Table 45 were administered intraperitoneally to six-week-old mice (C57BL/6J, male) (5 mice/group). After 96 hours, blood was collected under inhalation anesthesia (isoflurane), and the mice were exsanguinated. Then, the activities of aspartate transaminase (AST) and alanine transaminase (ALT) in serum were measured using an automated analyzer (FUJI DRI-CHEM 4000V manufactured by FUJIFILM).

For series [1], the system named is single-stranded oligo RNA 5′-r(AGCAAAYAACGC)-3′. The series can be described thus: Base selectivity (Tm, match/mismatch) with single-stranded oligo RNA. In kind it is binding. As for the experimental part:
(§1) The double-strand forming ability of the oligonucleotides was examined by subjecting the different types of oligonucleotides and the target strands to an annealing treatment to form double strands, and then measuring their Tm values. More specifically, a mixed liquid of each oligonucleotide (final concentration: 4 μM) and a phosphate buffer (10 mM, pH 7.2, 130 μL) containing sodium chloride (final concentration: 100 mM) was bathed in boiling water and then slowly cooled to room temperature. After that, the mixed liquid was cooled to 5° C. under nitrogen stream before starting the measurement. The temperature was raised to 90° C. at a rate of 0.5° C./min while absorbance at 260 nm was plotted at intervals of 0.5° C. The Tm value was calculated using a median method or differentiation (SEQ ID No. 17), and a mean value of three independent measurements was adopted.
(§2) For the above sequences (1) to (5), the double-strand forming ability (binding affinity) was examined in a similar manner using a single-stranded oligo RNA 5′-r([…])-3′ and a single-stranded oligo DNA 5′-d([…])-3′ as target strands.
(§3) For the single-stranded oligo RNA, Y was one of rA (SEQ ID No. 18), rU (SEQ ID No. 20), rG (SEQ ID No. 21), and rC (SEQ ID No. 22). For the single-stranded oligo DNA, Y was one of dA (SEQ ID No. 19), dT (SEQ ID No. 23), dG (SEQ ID No. 24), and dC (SEQ ID No. 25).
(§4) In the table, ΔTm was calculated by subtracting the Tm value of the match (dA or rA) from the Tm value of the mismatch.

For series [2], the system named is single-stranded oligo DNA 5′-d(AGCAAAYAACGC)-3′. The series can be described thus: Base selectivity (Tm, match/mismatch) with single-stranded oligo DNA. In kind it is binding. As for the experimental part: as §1, §2, §3, §4
Setting [3] is: 5 mice/group, serum after 96 hours, Means ± SD.
Where [4] appears, read: sequences (1) to (5), label = unit at position 6, match.

The record followed here is patent publication US12473299B2, “Cross-linked nucleoside and nucleotide using same” (Osaka University, priority 2020, dated 2025).

Entries after “also recorded” stand apart in the source; their conditions may differ. [BANA] = cross-linked (bridged) nucleoside of the invention; l = locked nucleic acid (LNA); d = 2'-deoxy (DNA)

Take “5′-d(^LG^T^T^a^t^g^c^c^a^c^c^^LC^T^^LA)-3′ (antisense GTTATGCCACCCTA; sugars from the 5' end l[BANA][BANA]ddddddddl[BANA]l, all phosphorothioate, methylation of C not given here) [(28), T: BANA-T3]”: in the series on mice (C57BL/6J, male) (setting [3]), the ALT was determined as 36.8 ± 9.5 IU/L and the AST turned out to be 223.2 ± 102.6 IU/L. For the same molecule, the “increase in ALT and AST” value in the series with mice (C57BL/6J, male) (after 96 hours, versus saline) was “almost no increase in ALT and AST”.
Regarding “5′-d(^LG^^LT^^LT^t^g^c^c^a^c^c^^LC^^LT^^LA)-3′ (antisense GTTATGCCACCCTA; sugars from the 5' end l3 d8 l3, all phosphorothioate, methylation of C not given here) [(29), reference compound]”, in the series with mice (C57BL/6J, male) (5 mice/group, 96 hours), the “Remarks (death of mice)” value was “all of the five mice died; also recorded: All 5 died”.
In the case of `COc1ccc(C(OC[C@H]2OC3CCOC([C@@H]3n3cc(C)c(=O)[nH]c3=O)[C@H]2OP(OCCC#N)N(C(C)C)C(C)C)(c2ccccc2)c2ccc(OC)cc2)cc1` (stereo partly shown) [compound 19], the “base pairing with G” value in series [1] (introduced into the oligonucleotides, compared with native DNA (dT) (SEQ ID No. 1)) is listed as “suppressed base pairing with G”. Also, the “ssRNA: Tm, Y = rA” value in series [1] (setting [4]) is 48 °C. Besides, in series [1] (sequences (1) to (5), mismatch rC), the “ssRNA: Tm, Y = rC” value was 34 °C. Also, the “ssRNA: Tm, Y = rG” value in series [1] (sequences (1) to (5), mismatch rG) came to 39 °C. Also, in series [1] (sequences (1) to (5), mismatch rU), the “ssRNA: Tm, Y = rU” value was 40 °C. Further, the “ssRNA: ΔTm, Y = rC” value in series [1] (ΔTm = Tm(mismatch) − Tm(match), mismatch rC) is −14 °C. Moreover, in series [1] (ΔTm = Tm(mismatch) − Tm(match), mismatch rG), the “ssRNA: ΔTm, Y = rG” value was −9 °C. The “ssRNA: ΔTm, Y = rU” value in series [1] (ΔTm = Tm(mismatch) − Tm(match), mismatch rU) is −8 °C. Besides, the “ssDNA: Tm, Y = dA” value in series [2] (setting [4]) is 42 °C. Besides, the “ssDNA: Tm, Y = dT” value in series [2] (sequences (1) to (5), label = unit at position 6, mismatch dT) was 38 °C. In addition, the “ssDNA: Tm, Y = dC” value in series [2] (sequences (1) to (5), mismatch dC) amounted to 32 °C. Moreover, the “ssDNA: Tm, Y = dG” value in series [2] (sequences (1) to (5), mismatch dG) was determined as 31 °C. The “ssDNA: ΔTm, Y = dC” value in series [2] (ΔTm = Tm(mismatch) − Tm(match), mismatch dC) is −10 °C. For the same molecule, in series [2] (ΔTm = Tm(mismatch) − Tm(match), mismatch dG), the “ssDNA: ΔTm, Y = dG” value is −11 °C. The “ssDNA: ΔTm, Y = dT” value in series [2] (ΔTm = Tm(mismatch) − Tm(match), mismatch dT) was −4 °C.
